Test results reported in patent US8394952B2 (Vertex Pharmaceuticals Incorporated, priority 2006, dated 2013).

These molecules were tested against Plk1 (Homo sapiens, UniProt P53350) (assay: biochemical).
Plk1, sequence (P53350 20-338): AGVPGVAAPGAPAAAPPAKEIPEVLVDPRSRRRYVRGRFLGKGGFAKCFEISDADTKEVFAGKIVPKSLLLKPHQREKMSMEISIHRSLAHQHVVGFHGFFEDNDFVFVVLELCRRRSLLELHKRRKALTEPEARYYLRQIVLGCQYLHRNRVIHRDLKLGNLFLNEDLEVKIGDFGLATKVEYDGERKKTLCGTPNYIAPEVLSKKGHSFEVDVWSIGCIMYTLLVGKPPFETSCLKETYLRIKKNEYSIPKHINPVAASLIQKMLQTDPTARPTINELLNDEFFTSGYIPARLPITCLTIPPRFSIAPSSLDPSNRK

SMILES	Ki [nM]
CC(=O)Nc1cccc(Nc2ncc3c(n2)N(C2CCCC2)CC(C)(C)C(=O)N3C)c1 [Compound I-111, N-(3-(9-cyclopentyl-6,7,8,9-tetrahydro-5,7,7-trimethyl-6-oxo-5H-pyrimido[4,5-b][1,4]diazepin-2-ylamino)phenyl)acetamide]	10 to 100
COc1cc(C(=O)O)ccc1Nc1ncc2c(n1)N(C1CCCC1)CCC(=O)N2C [Compound I-1, 4-(9-Cyclopentyl-6,7,8,9-tetrahydro-5-methyl-6-oxo-5H-pyrimido[4,5-b][1,4]diazepin-2-ylamino)-3-methoxybenzoic acid]	10 to 100
CNC(=O)c1ccc(Nc2ncc3c(n2)N(C2CCCC2)CCc2nncn2-3)c(OC)c1 [Compound I-42, 4-(6-Cyclopentyl-5,6-dihydro-4H-2,3,6,7,9,10b-hexaaza-benzo[e]azulen-8-ylamino)-3-methoxy-N-methylbenzamide]	10 to 100
CNC(=O)c1ccc(Nc2ncc3c(n2)N(CC2CCC2)CC(C)(C)C(=O)N3C)c(OC)c1 [Compound I-123, 4-(9-(cyclobutylmethyl)-6,7,8,9-tetrahydro-5,7,7-trimethyl-6-oxo-5H-pyrimido[4,5-b][1,4]diazepin-2-ylamino)-3-methoxy-N-methylbenzamide]	< 10
CCCN1CCC(NC(=O)c2ccc(Nc3ncc4c(n3)N(C3CCCC3)CC(C)(C)C(=O)N4C)c(OC)c2)CC1 [Compound I-69]	< 10
COc1cc(-c2ncc[nH]2)ccc1Nc1ncc2c(n1)N(C1CCCC1)CC(C)(C)C(=O)N2C [Compound I-250, 2-(4-(1H-imidazole-2-yl)-2-methoxyphenylamino)-9-cyclopentyl-5,7,7-trimethyl-8,9-dihydro-5H-pyrimido[4,5-b][1,4]diazepin-6(7H)-one]	< 10
COc1cc(C(=O)NCCOC(=O)N2CC[C@@H](F)C2)ccc1Nc1ncc2c(n1)N(C1CCCC1)CC(C)(C)C(=O)N2C [Compound I-39, (R)-3-Fluoro-pyrrolidine-1-carboxylic acid 2-[4-(9-cyclopentyl-5,7,7-trimethyl-6-oxo-6,7,8,9-tetrahydro-5H-pyrimido[4,5-b][1,4]diazepin-2-ylamino)-3-methoxybenzoylamino]-ethyl ester]	< 10
COc1cc(C(=O)NCCCO)ccc1Nc1ncc2c(n1)N(C1CCCC1)CC1(CC1)C(=O)N2C [Compound I-262, 4-(9′-cyclopentyl-5′-methyl-6′-oxo-5′,6′,8′,9′-tetrahydrospiro[cyclopropane-1,7′-pyrimido[4,5-b][1,4]diazepine]-2′-ylamino)-N-(3-hydroxypropyl)-3-methoxybenzamide]	< 10
CCOc1cc(C(=O)NC2CCN(C(C)C)CC2)ccc1Nc1ncc2c(n1)N(C1CCCC1)CC(C)(C)C(=O)N2C [Compound I-135, 4-(9-cyclopentyl-6,7,8,9-tetrahydro-5,7,7-trimethyl-6-oxo-5H-pyrimido[4,5-b][1,4]diazepin-2-ylamino)-3-ethoxy-N-(1-isopropylpiperidin-4-yl)benzamide]	< 10
COc1cc(C2=NCC(C)(C)N2)ccc1Nc1ncc2c(n1)N(C1CCCC1)CC(C)(C)C(=O)N2C [Compound I-257, 9-cyclopentyl-2-(4-(5,5-dimethyl-4,5-dihydro-1H-imidazol-2-yl)-2-methoxyphenylamino)-5,7,7-trimethyl-8,9-dihydro-5H-pyrimido[4,5-b][1,4]diazepin-6(7H)-one]	< 10
COc1cc(C(=O)NCCN2CCOCC2)ccc1Nc1ncc2c(n1)N(C1CCCC1)CC(C)(C)C(=O)N2C [Compound I-33, 4-(9-cyclopentyl-6,7,8,9-tetrahydro-5,7,7-trimethyl-6-oxo-5H-pyrimido[4,5-b][1,4]diazepin-2-ylamino)-3-methoxy-N-(2-morpholinoethyl)benzamide]	< 10
COc1cc(C(=O)NC2CCCC2)ccc1Nc1ncc2c(n1)N(C1CCCC1)CC1(CC1)C(=O)N2C [Compound I-176, N-cyclopentyl-4-(9′-cyclopentyl-5′-methyl-6′-oxo-5′,6′,8′,9′-tetrahydrospiro[cyclopropane-1,7′-pyrimido[4,5-b][1,4]diazepine]-2′-ylamino)-3-methoxybenzamide]	< 10
CN1CCN(c2ccc(Nc3ncc4c(n3)N(C3CCCC3)CC(C)(C)C(=O)N4C)cc2)CC1 [Compound I-85, 2-(4-(4-methylpiperazin-1-yl)phenylamino)-9-cyclopentyl-8,9-dihydro-5,7,7-trimethyl-5H-pyrimido[4,5-b][1,4]diazepin-6(7H)-one]	< 10
COc1cc(C(=O)NCc2ccncc2)ccc1Nc1ncc2c(n1)N(C1CCCC1)CC1(CC1)C(=O)N2C [Compound I-247, 4-(9′-cyclopentyl-5′-methyl-6′-oxo-5′,6′,8′,9′-tetrahydrospiro[cyclopropane-1,7′-pyrimido[4,5-b][1,4]diazepine]-2′-ylamino)-3-methoxy-N-(pyridin-4-ylmethyl)benzamide]	< 10
COc1cc(C(=O)NC2CC(F)(F)C2)ccc1Nc1ncc2c(n1)N(C1CCCC1)CC1(CC1)C(=O)N2C [Compound I-269, 4-(9′-cyclopentyl-5′-methyl-6′-oxo-5′,6′,8′,9′-tetrahydrospiro[cyclopropane-1,7′-pyrimido[4,5-b][1,4]diazepine]-2′-ylamino)-N-(3,3-difluorocyclobutyl)-3-methoxybenzamide]	< 10
COc1cc(C(=O)NC(C)(CO)CO)ccc1Nc1ncc2c(n1)N(C1CCCC1)CC(C)(C)C(=O)N2C [Compound I-136, 4-(9-cyclopentyl-6,7,8,9-tetrahydro-5,7,7-trimethyl-6-oxo-5H-pyrimido[4,5-b][1,4]diazepin-2-ylamino)-N-(1,3-dihydroxy-2-methylpropan-2-yl)-3-methoxybenzamide]	< 10
COc1cc(C(=O)NCCCOC(C)=O)ccc1Nc1ncc2c(n1)N(C1CCCC1)CC(C)(C)C(=O)N2C [Compound I-273, 3-(4-(9-cyclopentyl-5,7,7-trimethyl-6-oxo-6,7,8,9-tetrahydro-5H-pyrimido[4,5-b][1,4]diazepin-2-ylamino)-3-methoxybenzamido)propyl acetate]	< 10

Next, values leading:

Ki [nM]	SMILES
< 10	COc1cc(C(=O)N[C@@H]2C[C@H]2c2ccccc2)ccc1Nc1ncc2c(n1)N(C1CCCC1)CC(C)(C)C(=O)N2C [Compound I-225, 4-(9-cyclopentyl-5,7,7-trimethyl-6-oxo-6,7,8,9-tetrahydro-5H-pyrimido[4,5-b][1,4]diazepin-2-ylamino)-3-methoxy-N-((1R,2S)-2-phenylcyclopropyl)benzamide]
< 10	COc1cc(C(=O)NC2CCCC2)ccc1Nc1ncc2c(n1)N(C1CCCC1)C[C@H](C)C(=O)N2C [Compound I-173, 4-((S)-9-cyclopentyl-6,7,8,9-tetrahydro-5,7-dimethyl-6-oxo-5H-pyrimido[4,5-b][1,4]diazepin-2-ylamino)-N-cyclopentyl-3-methoxybenzamide]
< 10	COc1cc(C(=O)Nc2nccs2)ccc1Nc1ncc2c(n1)N(C1CCCC1)CC(C)(C)C(=O)N2C [Compound I-223, 4-(9-cyclopentyl-5,7,7-trimethyl-6-oxo-6,7,8,9-tetrahydro-5H-pyrimido[4,5-b][1,4]diazepin-2-ylamino)-3-methoxy-N-(thiazol-2-yl)benzamide]
10 to 100	CN1C(=O)C(C)(C)CN(C2CCCC2)c2nc(Nc3ccc(N)cc3)ncc21 [Compound I-117, 2-(4-aminophenylamino)-9-cyclopentyl-8,9-dihydro-5,7,7-trimethyl-5H-pyrimido[4,5-b][1,4]diazepin-6(7H)-one]
< 10	COc1cc(C(=O)NC(C)C)ccc1Nc1ncc2c(n1)N(C1CCCC1)CC1(CC1)C(=O)N2C [Compound I-263, 4-(9′-cyclopentyl-5′-methyl-6′-oxo-5′,6′,8′,9′-tetrahydrospiro[cyclopropane-1,7′-pyrimido[4,5-b][1,4]diazepine]-2′-ylamino)-N-isopropyl-3-methoxybenzamide]
10 to 100	CN1C(=O)C(C)(C)CN(C2CCCC2)c2nc(Nc3cccc(C(=O)NC4CC4)c3)ncc21 [Compound I-159, 3-(9-cyclopentyl-6,7,8,9-tetrahydro-5,7,7-trimethyl-6-oxo-5H-pyrimido[4,5-b][1,4]diazepin-2-ylamino)-N-cyclopropylbenzamide]
< 10	COc1cc(C(=O)NC2CC3CCC2C3)ccc1Nc1ncc2c(n1)N(C1CCCC1)CC(C)(C)C(=O)N2C (centres unmarked) [Compound I-210, N-(bicyclo[2.2.1]heptan-2-yl)-4-(9-cyclopentyl-5,7,7-trimethyl-6-oxo-6,7,8,9-tetrahydro-5H-pyrimido[4,5-b][1,4]diazepin-2-ylamino)-3-methoxybenzamide]
< 10	COc1cc(C(=O)N[C@@H]2CCC[C@H]2O)ccc1Nc1ncc2c(n1)N(C1CCCC1)CC1(CC1)C(=O)N2C [Compound I-272, 4-(9′-cyclopentyl-5′-methyl-6′-oxo-5′,6′,8′,9′-tetrahydrospiro[cyclopropane-1,7′-pyrimido[4,5-b][1,4]diazepine]-2′-ylamino)-N-((1R,2R)-2-hydroxycyclopentyl)-3-methoxybenzamide]
< 10	COc1cc(C(=O)NCC2CCCO2)ccc1Nc1ncc2c(n1)N(C1CCCC1)CC(C)(C)C(=O)N2C (centres unmarked) [Compound I-194, 4-(9-cyclopentyl-5,7,7-trimethyl-6-oxo-6,7,8,9-tetrahydro-5H-pyrimido[4,5-b][1,4]diazepin-2-ylamino)-3-methoxy-N-((tetrahydrofuran-2-yl)methyl)benzamide]
< 10	CNC(=O)c1ccc(Nc2ncc3c(n2)N(C2CCCC2)CC2(CCC2)C(=O)N3C)c(OC)c1 [Compound I-60, 4-(9′-cyclopentyl-5′-methyl-6′-oxo-5′,6′,8′,9′-tetrahydrospiro[cyclobutane-1,7′-pyrimido[4,5-b][1,4]diazepine]-2′-ylamino)-3-methoxy-N-methylbenzamide]
10 to 100	CNC(=O)c1ccc(Nc2ncc3c(n2)N([C@@H]2CCNC2)CC(C)(C)C(=O)N3C)c(OC)c1 [Compound I-19, 4-(6,7,8,9-tetrahydro-5,7,7-trimethyl-6-oxo-9-((R)-pyrrolidin-3-yl)-5H-pyrimido[4,5-b][1,4]diazepin-2-ylamino)-3-methoxy-N-methylbenzamide]
< 10	COc1cc(C(=O)NC(C)(C)CO)ccc1Nc1ncc2c(n1)N(C1CCCC1)CC(C)(C)C(=O)N2C [Compound I-240, 4-(9-cyclopentyl-5,7,7-trimethyl-6-oxo-6,7,8,9-tetrahydro-5H-pyrimido[4,5-b][1,4]diazepin-2-ylamino)-N-(1-hydroxy-2-methylpropan-2-yl)-3-methoxybenzamide]
